Laboratory results: patent publication US20140248252A1, “New Salt And Medical Use” (Pfizer Limited, priority 2011, published 2014)

Assays:
[1] = test system: uric acid in blood; assay: Multiple dose study (SDD, 14 days): uric acid in blood of healthy subjects; type: in vivo, human; conditions: 600 mg BID; 30 subjects enrolled in the study
Experimental: (§1) Uric acid measurements were performed using a commercial colorimetric assay kit (Beckman Coulter).
Multiple oral doses of 100 mg twice daily (BID), 300 mg BID, and 600 mg BID of 4-[2-(5-amino-1H-pyrazol-4-yl)-4-chlorophenoxy]-5-chloro-2-fluoro-N-(1,3-thiazol-4-yl)benzenesulfonamide SDD dispersion for oral administration, and placebo, were investigated for 14 days. Subjects were fasted overnight prior to the morning doses and for at least 2 hours prior to the evening doses. Food was withheld for at least 2 hours postdose.
A total of 30 subjects (all male) were enrolled in the study and 27 subjects completed the study (three subjects were withdrawn due to adverse events during treatment with 600 mg BID 4-[2-(5-amino-1H-pyrazol-4-yl)-4-chlorophenoxy]-5-chloro-2-fluoro-N-(1,3-thiazol-4-yl)benzenesulfonamide).

[2] = test system: uric acid in blood; assay: Multiple dose study (TS, 14 days): uric acid in blood of healthy and elderly subjects; type: in vivo, human
Experimental: as §1
(§2) Multiple oral doses of 4-[2-(5-amino-1H-pyrazol-4-yl)-4-chlorophenoxy]-5-chloro-2-fluoro-N-(1,3-thiazol-4-yl)benzenesulfonamide TS dispersion for oral administration, and placebo, were investigated for 14 days, as follows: • healthy subjects, 300 mg twice daily (BID,) • healthy subjects, 450 mg BID, and • elderly subjects, 300 mg BID.
(§3) Subjects were fasted overnight prior to the morning doses and for at least 2 hours prior to the evening doses. Food was withheld for at least 2 hours postdose.
A total of 49 subjects were enrolled in the study of which 39 received 4-[2-(5-amino-1H-pyrazol-4-yl)-4-chlorophenoxy]-5-chloro-2-fluoro-N-(1,3-thiazol-4-yl)benzenesulfonamide TS and 10 received placebo.

[3] = test system: uric acid in urine; assay: Multiple dose study (TS, 14 days): fraction of uric acid excreted in urine; type: in vivo, human
Experimental: as §2, §3
Uric acid was also measured in urine collected over 24 hours prior to dosing on Day 1, and then on Days 6, 14 and 16. The percent excreted fraction of uric acid in urine was calculated and analyzed with a linear mixed effects model.

[4] = target: T1, URAT-1 transporter (Homo sapiens, UniProt Q96S37); assay: URAT-1 inhibitor activity: [14C]-uric acid uptake in HEK-URAT1 cells; type: cell-based; conditions: [14C]-uric acid (20 μM), 2 minutes, normalised to the standard compound benzbromarone, read-out: inhibition of uric acid uptake (IC50)
T1 construct: expressed in transfected cells; host or cells: HEK293 cells, transient transfection with Lipofectamine 2000
T1 sequence (Q96S37 1-553): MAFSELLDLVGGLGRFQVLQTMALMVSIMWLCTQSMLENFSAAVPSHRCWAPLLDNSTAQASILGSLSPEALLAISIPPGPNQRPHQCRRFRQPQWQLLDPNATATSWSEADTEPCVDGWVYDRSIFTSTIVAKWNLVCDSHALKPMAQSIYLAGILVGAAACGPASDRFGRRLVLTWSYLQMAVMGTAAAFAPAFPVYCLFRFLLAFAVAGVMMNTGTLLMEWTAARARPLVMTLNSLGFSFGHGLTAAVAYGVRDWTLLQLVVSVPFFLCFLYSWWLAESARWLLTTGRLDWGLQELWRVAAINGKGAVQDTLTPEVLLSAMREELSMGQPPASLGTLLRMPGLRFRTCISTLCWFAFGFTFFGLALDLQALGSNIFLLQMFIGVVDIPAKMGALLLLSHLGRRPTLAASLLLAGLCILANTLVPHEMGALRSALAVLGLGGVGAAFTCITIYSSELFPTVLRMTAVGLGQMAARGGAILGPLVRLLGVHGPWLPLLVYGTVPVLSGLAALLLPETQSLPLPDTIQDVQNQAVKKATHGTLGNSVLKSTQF
Experimental: The potency of 4-[2-(5-amino-1H-pyrazol-4-yl)-4-chlorophenoxy]-5-chloro-2-fluoro-N-(1,3-thiazol-4-yl)benzenesulfonamide as an inhibitor of the URAT-1 transporter was determined as follows.
HEK293 cells were grown in medium consisting of Dulbecco's modified Eagle medium (DMEM) with L-GlutaMax (4.5 g of glucose per litre), supplemented with heat-inactivated foetal calf serum (10% v/v), 100 U/mL penicillin and 100 μg/mL streptomycin. The HEK cells were routinely cultured in 75 cm^2 tissue culture flasks in a humidified incubator at approximately 37° C. in approximately 95% air/5% CO2. […]
One day after transfection, culture medium was removed from the wells and the cells were pre-incubated with 0.2 mL of chlorine-free incubation medium (125 mM Na-gluconate, 4.8 mM K-gluconate, 1.3 mM Ca-gluconate, 1.2 mM KH2PO4, 1.2 mM MgSO4, 5.6 mM D-glucose, 25 mM HEPES, pH 7.4), in the absence and presence of 4-[2-(5-amino-1H-pyrazol-4-yl)-4-chlorophenoxy]-5-chloro-2-fluoro-N-(1,3-thiazol-4-yl)benzenesulfonamide (0-30 μM), for 15 minutes at approximately 37° C. […] The concentrations of [^14C]-uric acid were determined by liquid scintillation counting (LSC). The inhibition of [^14C]-uric acid transport was also determined in the presence of the known inhibitor benzbromarone (30 μM). […]
The amount of radioactivity present in cell lysate samples was determined by liquid scintillation counting (LSC). […]

**Q.** `Nc1[nH]ncc1-c1cc(Cl)ccc1Oc1cc(F)c(S(=O)(=O)Nc2cscn2)cc1Cl` [4-[2-(5-amino-1H-pyrazol-4-yl)-4-chlorophenoxy]-5-chloro-2-fluoro-N-(1,3-thiazol-4-yl)benzenesulfonamide] was tested. Which “subjects withdrawn due to adverse events” value [1] did it give?
**A.** three

**Q.** And the “median blood uric acid concentration versus LLN” value ([2]; 450 mg BID, Day 3)?
**A.** fell below LLN

**Q.** What about the “Concentrations of uric acid in blood following dosing” value ([2]; TS BID for 14 days) of the same compound?
**A.** decreased

**Q.** What about the “median blood uric acid concentration versus LLN” value ([2]; all cohorts (300 mg and 450 mg BID), Day 6) of the same compound?
**A.** below the LLN

**Q.** What about the “time until blood uric acid returned to above the LLN after cessation of dosing” value ([2]; all subjects (i.e. by Day 16)) of the same compound?
**A.** ≤ 2 days

**Q.** What about the “excreted fraction of uric acid in urine after dosing” value ([3]; Day 16) of the same compound?
**A.** returns to baseline by Day 16

**Q.** What about the “excreted fraction of uric acid in urine during dosing” value ([3]; TS BID, 24 hour urine) of the same compound?
**A.** increases during dosing

**Q.** And the IC50 [4]?
**A.** 3.54 µM
